Experimental data published in PubChem BioAssay (NCI).
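Interpolation was linear, between the two tested concentrations surrounding the appropriate level; five concentrations were tested over 48 hours in 96-well plates. At the GI50, growth is halved. TGI marks complete inhibition of growth.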

Key:
Assay in all cases: NCI anticancer screen, dose series, 48 h
[1] = test system: ACHN renal
[2] = test system: SK-MEL-28 melanoma
[3] = test system: HT29 colon
[4] = test system: OVCAR-8 ovarian
[5] = test system: SN12C renal
[6] = test system: HOP-62 NSCLC
[7] = test system: CCRF-CEM leukemia
[8] = test system: SW-620 colon
[9] = test system: MDA-MB-435
[10] = test system: DU-145 prostate

Structure (SMILES)	TGI [1] [µM]	TGI [2] [µM]	TGI [3] [µM]	TGI [4] [µM]	TGI [5] [µM]	TGI [6] [µM]	TGI [7] [µM]	TGI [8] [µM]	TGI [9] [µM]	TGI [10] [µM]	GI50 [1] [µM]	GI50 [2] [µM]	GI50 [3] [µM]	GI50 [9] [µM]	GI50 [4] [µM]	GI50 [5] [µM]	GI50 [10] [µM]	GI50 [6] [µM]	GI50 [8] [µM]	GI50 [7] [µM]
OCC(O)COc1c(Cl)ccc(Cl)c1Cl (stereo unspecified)	> 100	> 100	> 100	> 100	> 100	> 100	> 100	> 100	–	–	–	–	–	–	–	–	–	–	–	–
O=C(O)C(Br)C(Br)c1ccccc1[N+](=O)[O-] (stereo unspecified)	> 100	> 100	> 100	> 100	> 100	> 100	–	> 100	> 100	> 100	–	–	–	–	–	–	–	–	–	–
Fc1ccc(F)c(C2SCc3nc4ccccc4n32)c1 (stereo unspecified)	> 100	–	> 100	> 100	> 100	> 100	> 100	> 100	–	–	–	–	–	–	–	–	–	–	–	–
COc1ccc(/C=C/c2nc(=S)[nH][nH]2)cc1	> 100	> 100	> 100	> 100	> 100	–	> 100	> 100	–	–	–	–	–	–	–	–	–	–	–	–
N#CCC(=O)N/N=C1/C(=O)NC(=O)C(=O)C1c1nc2ccccc2s1 (stereo unspecified)	> 100	> 100	> 100	> 100	> 100	> 100	> 100	> 100	–	–	–	–	–	–	–	–	–	–	–	–
O=C(NCCN1CCOCC1)Nc1ccc(-c2cc3c(Nc4ccc(Oc5cccc(C(F)(F)F)c5)c(Cl)c4)ncnc3s2)cc1	6.06	1.6	1.69	9.88	8.21	5.93	–	2.06	2	9.26	1.74	0.809	0.896	0.987	2.4	1.97	2.93	1.46	1.01	–
COc1ccc(CCNCc2cccc(OC)c2OC)cc1OC	> 100	> 100	> 100	> 100	> 100	> 100	> 100	> 100	–	–	–	–	–	–	–	–	–	–	–	–
COc1ccccc1CNC(=O)C1c2ccccc2C(=O)N(CC(C)C)C1c1cccs1 (stereo unspecified)	90.3	> 100	90.5	> 100	> 100	> 100	–	> 100	39.3	> 100	24.8	30.7	17	16.8	23.6	35	38.4	40.7	26.4	–
CC(C)CC(CNC(Cc1ccc(Cl)cc1)C(N)=O)NC(=O)C(Cc1cnc[nH]1)NC(=O)CNC(=O)C(NC(=O)C(C)NC(=O)C(Cc1c[nH]c2ccccc12)NC(=O)C(CCC(=O)O)NC(=O)C(N)Cc1ccccc1)C(C)C (stereo unspecified)	> 133	> 133	> 133	> 133	> 133	> 133	> 133	> 133	–	–	–	–	–	–	–	–	–	–	–	–
CC(=O)OCC(OC(C)=O)C(OC(C)=O)C(OC(C)=O)C(=O)CNn1c(-c2ccccc2)nc2ccc(Br)cc2c1=O (stereo unspecified)	> 100	> 100	> 100	> 100	> 100	> 100	> 100	> 100	–	–	–	–	–	–	–	–	–	–	–	–
O=C(CCc1ccccc1)On1nnc2ccccc2c1=O	> 100	–	> 100	> 100	> 100	> 100	> 100	> 100	–	–	–	–	–	–	–	–	–	–	–	–
O=C(CCC(=O)N/N=C/c1ccccc1O)N/N=C/c1ccccc1O	–	> 100	> 100	> 100	> 100	–	–	> 100	–	–	–	–	–	–	–	–	–	–	–	–
O=C1OC(c2ccccc2)=N/C1=C\c1c(O)cc(O)cc1O	> 100	> 100	> 100	> 100	> 100	–	> 100	> 100	–	–	–	–	–	–	–	–	–	–	–	–
CCOC(=O)c1c(C)n(CC(C)C)c2c1cc1oc(=O)c(=O)n3cnc2c13	24.1	> 50	> 50	36.7	22.9	> 50	–	10.6	16.8	> 50	9.34	23.6	17.2	9.07	12.5	10.7	16.3	35	1.79	–
Cc1[nH]nc2c1N=C(c1ccccc1F)c1cc(C#N)ccc1N2	5.37	> 23.5	7.41	12.3	15.1	8.85	> 13.6	–	–	12.8	0.326	6.5	0.118	–	3.38	3.87	3	0.899	–	0.113
CN1CCN(Cc2ccc(NC(=O)c3[nH]ncc3Nc3ncnc4sccc34)cc2)CC1	0.791	> 100	–	> 100	> 100	> 100	–	> 100	> 100	> 100	0.223	0.857	–	0.394	0.413	0.361	0.35	0.437	0.315	–

Structure (SMILES)	TGI [1] [µM]	TGI [2] [µM]	TGI [3] [µM]	TGI [4] [µM]	TGI [5] [µM]	TGI [6] [µM]	TGI [7] [µM]	TGI [8] [µM]	TGI [9] [µM]	TGI [10] [µM]	GI50 [1] [µM]	GI50 [2] [µM]	GI50 [3] [µM]	GI50 [9] [µM]	GI50 [4] [µM]	GI50 [5] [µM]	GI50 [10] [µM]	GI50 [6] [µM]	GI50 [8] [µM]	GI50 [7] [µM]
Cc1cccc2c1Oc1cc(Cl)ccc1C2NC(=O)CN(C)C (stereo unspecified)	> 100	72.7	> 100	> 100	> 100	> 100	> 100	> 100	–	–	–	–	–	–	–	–	–	–	–	–
Cc1[nH]c(=O)nc(CC(O)(c2ccccc2)c2ccccc2)c1-c1ccccc1	> 100	> 100	> 100	> 100	> 100	> 100	> 100	> 100	–	–	–	–	–	–	–	–	–	–	–	–
COC1(OC)CC2C(=O)N(Cc3ccccc3)C1CC2S(=O)(=O)c1ccccc1 (stereo unspecified)	> 100	> 100	> 100	> 100	> 100	> 100	> 100	> 100	–	–	–	–	–	–	–	–	–	–	–	–
CCc1ccccc1-n1c2nc(=O)n(C)c(=O)c-2nc2ccccc21	16.3	–	14.3	21.6	26.6	> 100	39.3	27.3	–	–	–	–	–	–	–	–	–	–	–	–
CCOC(=O)CC1=NC(=Nc2cc(Cl)ccc2Cl)SC1	> 100	> 100	> 100	> 100	> 100	> 100	> 100	> 100	–	–	–	–	–	–	–	–	–	–	–	–
O=C(N/C(=C\c1ccc(Br)cc1)c1nc2ccccc2s1)c1ccccc1	> 100	> 100	> 100	> 100	> 100	–	> 100	> 100	–	–	–	–	–	–	–	–	–	–	–	–
CCOC(=O)c1cc2cc(NC(=O)c3cc4cc([N+](=O)[O-])ccc4n3C)ccc2n1C	31.9	> 100	> 100	> 100	46.5	35.3	> 100	> 100	> 100	–	13.5	63.6	24.9	60.9	49.5	16.3	–	19.7	93.5	7.94
COC(=O)C1=C(c2cc(OC)c(OC)c(OC)c2)OC(c2cc(OC)c(OC)c(OC)c2)C1COC(C)=O (stereo unspecified)	> 100	> 100	> 100	> 100	> 100	> 100	> 100	> 100	–	–	–	–	–	–	–	–	–	–	–	–
COc1ccc(NC(=O)Nc2ccc(Nc3nc(C)cc(Nc4ccc(C)cc4)n3)cc2)cc1	3.13	3.14	–	–	3.86	3.05	–	–	–	2.59	1.75	1.51	–	–	–	1.88	1.16	1.58	–	–
O=C(N=Nc1c(O)[nH]c2c(Cl)cc(Cl)cc12)c1ccncc1	> 100	50.5	75.7	67.8	64.4	88.3	> 100	> 100	33.7	–	–	–	–	–	–	–	–	–	–	–
CN(/N=C/c1ccnc2ccccc12)c1ccc([N+](=O)[O-])cc1[N+](=O)[O-]	> 100	> 100	> 100	> 100	> 100	89.1	> 100	> 100	–	–	–	–	–	–	–	–	–	–	–	–
O=C(CCCNC(=O)OCc1ccccc1)OCc1ccc2c(c1)C(=O)c1ccccc1C2=O	> 100	> 100	> 100	> 56.2	> 26	> 93.4	> 100	> 100	–	–	–	–	–	–	–	–	–	–	–	–
CCc1ccc(/C(C)=N/NC(N)=S)cc1	–	> 100	> 100	> 100	–	> 100	–	–	–	–	–	–	–	–	–	–	–	–	–	–
NS(=O)(=O)c1ccc(NC(=O)CC(=O)Nc2ccc(S(N)(=O)=O)cc2)cc1	> 100	> 100	> 100	> 100	> 100	> 100	> 100	> 100	–	–	–	–	–	–	–	–	–	–	–	–
Cc1ccc(S(=O)(=O)NC(CCC(=O)Nc2ccccc2)C(=O)Nc2ccccc2)cc1 (stereo unspecified)	–	–	–	2.57	–	–	–	2.93	2.06	–	–	–	–	0.437	0.5	–	–	–	0.719	–
O=C(/C=C/c1c(O)ccc2ccccc12)c1cccc2ccccc12	> 100	> 100	> 100	> 100	> 100	> 100	> 67.8	> 51.6	–	–	–	–	–	–	–	–	–	–	–	–
